Laboratory results: PubChem BioAssay AID2610 (Broad Institute, 2010)
Results filed as inconclusive are left out. Active and inactive are the calls of the source.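 The calls were made as follows: active = EC50 no more than tenfold above the top concentration tested, with valid fit and all samples agreeing; inconclusive = flat fit at 30 to 70% inhibition, poor fit, or split samples; inactive = EC50 beyond tenfold the top concentration tested.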

What follows are compounds tested on BJeLR fibroblast viability, Alamar Blue fluorescence, 48 h (assay: BJeLR fibroblast growth inhibition, viability readout – cell-based, alamar blue fluorescence, 48 h, cherrypicked samples, dose response (AID 2610);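 also: BJ fibroblasts with hTERT plus SV40 large and small T and HRAS V12; EC50 for loss of viable cells so potency reflects cytotoxic compounds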).

SMILES	EC50
COc1cc(OC)c(C2=NOC(C(=O)NCc3cccs3)C2)cc1Cl (stereo not given)	2320 nM
CC(Oc1ccc(Cl)cc1Cl)c1nc(-c2ccc(NC(=O)c3cccnc3)cc2)no1 (stereo not given)	1580 nM
COc1cc2c(cc1OC)C(c1cc(Br)ccc1F)N(C(=O)CCl)CC2 (stereo not given)	1310 nM
COc1ccc(COC(=O)c2cc([N+](=O)[O-])ccc2N2CCOCC2)cc1F	< 104 nM
Cc1cc(-n2c(SCC(=O)NCCC3=CCCCC3)nc3n[nH]c(C)c3c2=N)ccc1Cl	> 13300 nM (inactive)
C/C(=N\Nc1ncnc2sc(C)c(C)c12)c1ccccn1	< 104 nM
COc1ccc2c(c1)sc(N)[n+]2Cc1cc(C)cc2cccnc12	266 nM
O=C(Sc1cccc2cccnc12)c1ccccc1Br	337 nM
O=C(/C=C/c1ccc([N+](=O)[O-])o1)NNC(=O)c1ccc(F)cc1	2660 nM
C(=N\Nc1nc2ccccc2[nH]1)/c1ccc2ncccc2c1	> 13300 nM (inactive)
COc1ccc(C2=CC(=O)C=CC2=O)cc1	> 13300 nM (inactive)
Oc1ccc(/C=N/Nc2nccnc2Cl)c(O)c1	6750 nM
Cc1ccc(N(C(=O)CCl)C(C(=O)NC2CCCCC2)c2cccnc2)cc1C (stereo not given)	< 89.2 nM
Cc1cccc(N2CCN(C(=S)Nc3ccc4nc(N5CCN(C)CC5)cc(C)c4c3)CC2)c1C	864 nM
CSc1cc(-c2ccccc2)n(Cc2ccccc2Cl)c(=O)c1C#N	709 nM
COc1ccc(NC(=O)C(=O)NCC2CCCN2S(=O)(=O)c2ccc(C)cc2)cc1 (stereo not given)	< 104 nM
COc1cccc(/C=C2\SC(=S)N(CCCC(=O)N(CCO)c3ccccc3)C2=O)c1	2530 nM
CCN(CC)c1ccc(/C=N/NC(=O)c2ccc3nc[nH]c3c2)c(O)c1	1530 nM
COc1ccc2nc(C)cc(N/N=C/c3ccc(F)cc3)c2c1	292 nM
CCN1CCN(CCNC(=O)c2ccc(/C=C3/Sc4ccccc4N(Cc4ccccc4C)C3=O)cc2)CC1	> 13300 nM (inactive)
Cc1ccc(NC(=O)[C@H](Cc2c[nH]c3ccccc23)NC(=O)[C@@H]2Cc3ccccc3CN2)c(C)c1	> 13300 nM (inactive)
COc1cccc(N2CCN(C(=O)c3ccc(CS(=O)c4ccc(C)cc4)o3)CC2)c1 (stereo not given)	165 nM
COc1ccc(S(=O)(=O)N2c3cc(Cl)ccc3Oc3nc4ccccc4nc32)cc1	193 nM
O=C1C=C(c2cccs2)C[C@H](c2ccccc2)[C@H]1n1nnc([N+](=O)[O-])n1	< 104 nM
COc1ccc(NC(=O)CN(C)S(=O)(=O)c2ccc3[nH]c(=O)oc3c2)cc1	> 13300 nM (inactive)

SMILES	EC50
O=C(NC(Nc1nc2ccc([N+](=O)[O-])cc2s1)(C(F)(F)F)C(F)(F)F)c1ccccc1Cl	427 nM
Cc1ccc(C(C)C)c(OCc2ccc(C(=O)N/N=C/c3cccc(O)c3O)cc2)c1	496 nM
CC1CCCCC1N(C)C1CCN(C(=O)CNC(=O)/C=C/c2cccc(Cl)c2)CC1 (stereo not given)	1290 nM
COC(=O)C1CC23C=CCN4CCC5(c6ccccc6NC15C2C)C43 (stereo not given)	< 104 nM
CCN1C/C(=C/c2ccc(OC)c(O)c2)C(=O)/C(=C/c2ccc(OC)c(O)c2)C1	472 nM
COc1ccc(-c2nnc(NC(=O)c3ccc(S(=O)(=O)N4CCc5ccccc5C4)cc3)o2)cc1	2600 nM
Nc1ncnc2c1ccn2[C@@H]1O[C@H](CO)[C@@H](O)[C@H]1O	< 104 nM
Cc1ccc2[nH]c3c(c2c1)CCCC3NC(=O)CCl (stereo not given)	2270 nM
C=C1C(=O)O[C@@H]2C[C@@H](C)[C@H]3C=CC(=O)[C@]3(O)C[C@@H]12	4550 nM
Nc1nc(CCl)nc(Nc2ccc3ccccc3c2)n1	192 nM
O=C(COc1ccc(Cl)cc1)Nc1ccc(C(=O)NCc2cccnc2)cc1	4420 nM
CC1CN(S(=O)(=O)c2ccc(C(=O)NCCCn3ccnc3)cc2)CC(C)O1 (stereo not given)	436 nM
O=c1c2ccccc2nc(/C=C/c2ccc([N+](=O)[O-])o2)n1-c1ccc(O)cc1	3660 nM
CC(C)(C)c1ccc(C(=O)Nc2ccc(C(=O)NCc3cccnc3)cc2)cc1	< 118 nM
C/C(=N\Nc1nc2ccccc2[nH]1)c1ccccn1	165 nM
Cc1ccccc1OCC(O)CNC1CCC(NCC(O)COc2ccccc2C)CC1 (stereo not given)	582 nM
CCCN1C=CC(=C2C(=O)c3ccccc3C2=O)C=C1	> 13300 nM (inactive)
O=C(c1ccc2c3n(nc2c1)-c1ccccc1CO3)N1CCOCC1	> 13300 nM (inactive)
O=[N+]([O-])c1ccccc1N/N=C\c1ccccc1Cl	> 13300 nM (inactive)
CCOc1ccc(C2=Nn3c(nnc3-c3ccccc3OC)SC2)cc1	< 104 nM
CCN(CC)CCN1C(=O)/C(=C\c2ccc(Cl)c([N+](=O)[O-])c2)SC1=Nc1ccc(OC)cc1	563 nM
Cc1cccc(NC2=NC(C)(C)N=C(N)N2)c1	> 13300 nM (inactive)
COc1ccc(S(=O)(=O)N2c3ccc(F)cc3CCC2C)cc1 (stereo not given)	< 104 nM
CCOC(=O)c1ccc(NC(=O)Nc2ccon2)cc1	< 104 nM
Cc1cc(N)c2cc(NC(=O)/C=C/c3ccccc3Cl)ccc2n1	1240 nM

SMILES	EC50
CCSc1cc(C2C(C#N)=C(N)Oc3n[nH]c(C)c32)c(C)o1 (stereo not given)	11500 nM
CC(=O)Nc1ccc(NC(=O)CN(c2cccc([N+](=O)[O-])c2)S(C)(=O)=O)cc1	1410 nM
COc1ccc(S(=O)(=O)N2CCOCC2)cc1NC(=O)CCNC(=O)c1ccc(Br)cc1	440 nM
O=C(Cc1ccc([N+](=O)[O-])cc1)N/N=C/c1ccc([N+](=O)[O-])o1	3540 nM
CCCCCOc1ccc(Br)cc1/C(C)=N/NC1=NCCN1	697 nM
Cc1ccc(Nc2nc(N)nc(CCl)n2)c(C)c1	388 nM
O=S1(=O)C=C(Sc2nc3ccccc3s2)c2ccccc21	316 nM
COCc1c(C(C)C)nc(C(C)C)c(/C=C/[C@@H](O)C[C@@H](O)CC(=O)O)c1-c1ccc(F)cc1	< 104 nM
CCCCOc1ccc(Br)cc1/C(C)=N/NC1=NCCN1	585 nM
CC(=O)Nc1ccc(/C=N/Nc2nc3ccccc3[nH]2)cc1	> 13300 nM (inactive)
CCOc1ccc2nc(NC(=O)c3ccoc3C)sc2c1	> 13300 nM (inactive)
Cn1c(/C=C/c2ccc([N+](=O)[O-])o2)nc2ccccc2c1=O	544 nM
Cc1cccc(N(C)S(=O)(=O)c2ccc(-c3cnc(C4CC4)o3)cc2)c1	< 104 nM
CC(=O)c1ccccc1OCCOCCOCCOc1ccccc1C(C)=O	> 13300 nM (inactive)
O=C1/C(=C/c2ccncc2)CCC/C1=C\c1ccncc1	539 nM
CCCCCCCCCCn1c2c(c(=N)c3c1CCC3)CCC2	820 nM
Cc1c(C(=O)OCC(=O)N2CC(=O)Nc3ccccc32)oc2ccc(Br)cc12	> 13300 nM (inactive)
C[C@@H]1O[C@@H](O[C@H]2C[C@@H](O)[C@]3(CO)[C@H]4[C@H](O)C[C@]5(C)[C@@H](C6COC(=O)C6)CC[C@]5(O)[C@@H]4CC[C@]3(O)C2)[C@H](O)[C@H](O)[C@H]1O (stereo not given in full)	802 nM
CCCOc1ccc(C(=O)C(CCC(CNCC)C(=O)c2ccc(OCCC)cc2)CNCC)cc1 (stereo not given)	638 nM
COc1ccc(C(C(=O)NC2CCCCC2)N(C(=O)CCl)c2ccc(C)cc2)cc1 (stereo not given)	454 nM
Cc1occc1C(=O)N/N=C/c1ccc2c(c1)OCO2	> 13300 nM (inactive)
CCc1ccc(/C=C2/SC(=S)N(CCC(=O)Nc3cccnc3)C2=O)cc1	2750 nM
Cc1ccc(C(=O)Sc2cccccc2=O)cc1	< 62.4 nM
O=C(Nc1ccc([N+](=O)[O-])cc1)Nc1ccon1	380 nM
COc1ccc2[nH]c3c(NCCC4=CCCCC4)ncnc3c2c1	> 13300 nM (inactive)
